Measured values from PubChem BioAssay AID328 (DTP/NCI, 2004).
Several values for one entry are separate records, joined by “and”; a condition that tells them apart may be missing. Equal values may be shown once. Inconclusive results and toxic doses are left out.

Tested on: BDF1 mice, P388 leukemia ip, median survival T/C
Experiment: NCI In Vivo Anticancer Drug Screen. Data for tumor model P388 Leukemia (intraperitoneal) in B6D2F1 (BDF1) mice
Settings: endpoint: median survival time, higher = longer survival
Outline: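 Compound-treated tumour-bearing mice were compared with vehicle-treated controls. Survival was recorded, and the value is the treated-group measurement divided by the control-group measurement (T/C).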

[1] = dose: 100.0 mg/kg/injection, schedule: Q01DX009 (ip), vehicle: Klucel (hydroxypropylcellulose) (HPC)
[2] = dose: 200.0 mg/kg/injection, schedule: Q01DX009 (ip), vehicle: Klucel (hydroxypropylcellulose) (HPC)
[3] = dose: 400.0 mg/kg/injection, schedule: Q01DX009 (ip), vehicle: Klucel (hydroxypropylcellulose) (HPC)
[4] = dose: 20.0 mg/kg/injection, schedule: Q01DX009 (ip), vehicle: saline with Tween-80
[5] = dose: 200.0 mg/kg/injection, schedule: Q01DX009 (ip), vehicle: saline with Tween-80
[6] = dose: 400.0 mg/kg/injection, schedule: Q01DX009 (ip), vehicle: saline with Tween-80
[7] = dose: 100.0 mg/kg/injection, schedule: Q04DX003 (ip), vehicle: saline
[8] = dose: 200.0 mg/kg/injection, schedule: Q04DX003 (ip), vehicle: saline
[9] = dose: 400.0 mg/kg/injection, schedule: Q04DX003 (ip), vehicle: saline

SMILES: C[C@@H]1CC2=CC(=O)C=C[C@]2(C)[C@H]2CC[C@@]3(C)[C@@H](CC[C@]3(C)O)[C@H]12
- T/C (dose: 50.0 mg/kg/injection, schedule: Q01DX009 (sc), vehicle: steriod suspending solution): 95 % of control
- T/C [1]: 88 % of control
- T/C (dose: 100.0 mg/kg/injection, schedule: Q01DX009 (sc), vehicle: steriod suspending solution): 90 % of control
- T/C (dose: 100.0 mg/kg/injection, schedule: Q04DX003 (ip), vehicle: Klucel (hydroxypropylcellulose) (HPC)): 91 % of control
- T/C [2]: 100 % of control
- T/C (dose: 200.0 mg/kg/injection, schedule: Q01DX009 (sc), vehicle: steriod suspending solution): 86 % of control
- T/C (dose: 200.0 mg/kg/injection, schedule: Q04DX003 (ip), vehicle: Klucel (hydroxypropylcellulose) (HPC)): 95 % of control
- T/C [3]: 88 % of control
- T/C (dose: 400.0 mg/kg/injection, schedule: Q04DX003 (ip), vehicle: Klucel (hydroxypropylcellulose) (HPC)): 91 % of control

SMILES: COc1cc(-c2ccc(Nc3ccccc3C(=O)O)c(OC)c2)ccc1Nc1ccccc1C(=O)O
- T/C (dose: 50.0 mg/kg/injection, schedule: Q01DX010 (ip), vehicle: saline): 166 % of control
- T/C (dose: 100.0 mg/kg/injection, schedule: Q01DX010 (ip), vehicle: saline): 158 % of control

SMILES: Cn1nnc(N/N=C/c2ccccc2)n1
- T/C (dose: 3.12 mg/kg/injection, schedule: Q01DX009 (ip), vehicle: saline with Tween-80): 102 % of control
- T/C (dose: 4.0 mg/kg/injection, schedule: Q01DX009 (ip), vehicle: saline with Tween-80): 121 % of control
- T/C (dose: 6.25 mg/kg/injection, schedule: Q01DX009 (ip), vehicle: saline with Tween-80): 93 % of control
- T/C (dose: 6.25 mg/kg/injection, schedule: Q04DX003 (ip), vehicle: saline with Tween-80): 112 % of control
- T/C (dose: 8.0 mg/kg/injection, schedule: Q01DX009 (ip), vehicle: saline with Tween-80): 123 % of control
- T/C (dose: 12.0 mg/kg/injection, schedule: Q01DX009 (ip), vehicle: saline with Tween-80): 120 % of control
- T/C (dose: 12.5 mg/kg/injection, schedule: Q01DX009 (ip), vehicle: saline with Tween-80): 97 % of control and 107 % of control
- T/C (dose: 12.5 mg/kg/injection, schedule: Q04DX003 (ip), vehicle: saline with Tween-80): 105 % of control
- T/C (dose: 16.0 mg/kg/injection, schedule: Q01DX009 (ip), vehicle: saline with Tween-80): 98 % of control
- T/C [4]: 114 % of control
- T/C (dose: 25.0 mg/kg/injection, schedule: Q01DX009 (ip), vehicle: saline with Tween-80): 100 % of control and 107 % of control
- T/C (dose: 25.0 mg/kg/injection, schedule: Q04DX003 (ip), vehicle: saline with Tween-80): 99 % of control and 100 % of control

SMILES: NC(=O)OCc1c(O)c2c(c(O)c1COC(N)=O)C(=O)C=CC2=O
- T/C (dose: 12.5 mg/kg/injection, schedule: Q01DX009 (ip), vehicle: water): 111 % of control
- T/C (dose: 12.5 mg/kg/injection, schedule: Q04DX003 (ip), vehicle: water): 100 % of control
- T/C (dose: 25.0 mg/kg/injection, schedule: Q01DX009 (ip), vehicle: water): 92 % of control
- T/C (dose: 25.0 mg/kg/injection, schedule: Q04DX003 (ip), vehicle: water): 104 % of control
- T/C (dose: 50.0 mg/kg/injection, schedule: Q01DX009 (ip), vehicle: water): 104 % of control
- T/C (dose: 50.0 mg/kg/injection, schedule: Q04DX003 (ip), vehicle: water): 101 % of control
- T/C (dose: 100.0 mg/kg/injection, schedule: Q04DX003 (ip), vehicle: water): 100 % of control
- T/C (dose: 200.0 mg/kg/injection, schedule: Q04DX003 (ip), vehicle: water): 102 % of control and 113 % of control
- T/C (dose: 300.0 mg/kg/injection, schedule: Q04DX003 (ip), vehicle: water): 95 % of control
- T/C (dose: 400.0 mg/kg/injection, schedule: Q04DX003 (ip), vehicle: water): 108 % of control

SMILES: CCOC(=O)C(CCCCC(NC(C)=O)(C(=O)OCC)C(=O)OCC)(NC(C)=O)C(=O)OCC
- T/C (dose: 100.0 mg/kg/injection, schedule: Q01DX009 (ip), vehicle: saline with Tween-80): 95 % of control
- T/C [5]: 100 % of control
- T/C [6]: 104 % of control

SMILES: [N-]=[N+]=CC(=O)OCC(N)C(=O)O (stereo not given)
- T/C (dose: 100.0 mg/kg/injection, schedule: Q01DX009 (ip), vehicle: saline): 110 % of control
- T/C [7]: 109 % of control
- T/C (dose: 200.0 mg/kg/injection, schedule: Q01DX009 (ip), vehicle: saline): 110 % of control
- T/C [8]: 109 % of control
- T/C [9]: 118 % of control

SMILES: C1CC[N-]CC1.C1CC[N-]CC1.C1CC[N-]CC1.C1CC[N-]CC1.N#C[S-].N#C[S-].[Ni]
- T/C (dose: 5.0 mg/kg/injection, schedule: Q01DX009 (ip), vehicle: saline with Tween-80): 100 % of control
- T/C (dose: 10.0 mg/kg/injection, schedule: Q01DX009 (ip), vehicle: saline with Tween-80): 100 % of control
- T/C [4]: 108 % of control

SMILES: O=S(=O)(O)C(I)(I)S(=O)(=O)O
- T/C [7]: 100 % of control
- T/C [8]: 95 % of control
- T/C [9]: 104 % of control

SMILES: CC(=O)c1ccc(F)c(C)c1
- T/C (dose: 100.0 mg/kg/injection, schedule: Q01DX001 (ip), vehicle: saline sonified): 105 % of control
- T/C (dose: 200.0 mg/kg/injection, schedule: Q01DX001 (ip), vehicle: saline sonified): 110 % of control
- T/C (dose: 400.0 mg/kg/injection, schedule: Q01DX001 (ip), vehicle: saline sonified): 105 % of control

SMILES: O=C(O)CCCc1ccc(N(CCCl)CCCl)cc1
- T/C (dose: 0.25 mg/kg/injection, schedule: Q01DX009 (ip), vehicle: Klucel (hydroxypropylcellulose) (HPC)): 123 % of control
- T/C (dose: 0.5 mg/kg/injection, schedule: Q01DX009 (ip), vehicle: Klucel (hydroxypropylcellulose) (HPC)): 105 % of control
- T/C (dose: 1.5 mg/kg/injection, schedule: Q01DX009 (ip), vehicle: Klucel (hydroxypropylcellulose) (HPC)): 171 % of control
- T/C (dose: 2.0 mg/kg/injection, schedule: Q01DX009 (ip), vehicle: Klucel (hydroxypropylcellulose) (HPC)): 165 % of control
- T/C (dose: 3.0 mg/kg/injection, schedule: Q01DX009 (ip), vehicle: saline): 99 % of control and 100 % of control
- T/C (dose: 3.13 mg/kg/injection, schedule: Q01DX010 (ip), vehicle: saline): 100 % of control
- T/C (dose: 6.0 mg/kg/injection, schedule: Q01DX009 (ip), vehicle: saline): 105 % of control
- T/C (dose: 12.0 mg/kg/injection, schedule: Q01DX009 (ip), vehicle: saline): 122 % of control
- T/C (dose: 12.5 mg/kg/injection, schedule: Q01DX010 (ip), vehicle: saline): 172 % of control
- T/C (dose: 24.0 mg/kg/injection, schedule: Q01DX009 (ip), vehicle: saline): 88 % of control

SMILES: Cc1ccccc1NC=O
- T/C (dose: 90.0 mg/kg/injection, schedule: Q01DX009 (ip), vehicle: saline with Tween-80): 103 % of control
- T/C (dose: 100.0 mg/kg/injection, schedule: Q04DX003 (ip), vehicle: saline with Tween-80): 95 % of control
- T/C (dose: 135.0 mg/kg/injection, schedule: Q01DX009 (ip), vehicle: saline with Tween-80): 107 % of control
- T/C [5]: 99 % of control
- T/C (dose: 200.0 mg/kg/injection, schedule: Q04DX003 (ip), vehicle: saline with Tween-80): 104 % of control
- T/C (dose: 300.0 mg/kg/injection, schedule: Q01DX009 (ip), vehicle: saline with Tween-80): 107 % of control
- T/C [6]: 120 % of control
- T/C (dose: 400.0 mg/kg/injection, schedule: Q04DX003 (ip), vehicle: saline with Tween-80): 116 % of control

SMILES: COc1c(O)ccc2c1c[n+](C)c1c3cc4c(cc3ccc21)OCO4
- T/C (dose: 4.0 mg/kg/injection, schedule: Q01DX009 (ip), vehicle: saline): 113 % of control
- T/C (dose: 8.0 mg/kg/injection, schedule: Q01DX009 (ip), vehicle: saline): 113 % of control
- T/C (dose: 16.0 mg/kg/injection, schedule: Q01DX009 (ip), vehicle: saline): 106 % of control

SMILES: CC(C)c1ccc(O)c(=O)cc1
- T/C (dose: 40.0 mg/kg/injection, schedule: Q01DX010 (ip), vehicle: carboxymethylcellulose (CMC)): 95 % of control
- T/C (dose: 80.0 mg/kg/injection, schedule: Q01DX010 (ip), vehicle: carboxymethylcellulose (CMC)): 100 % of control
- T/C (dose: 160.0 mg/kg/injection, schedule: Q01DX010 (ip), vehicle: carboxymethylcellulose (CMC)): 100 % of control

SMILES: CC(=O)OCC(=O)[C@@]1(O)CC[C@H]2[C@@H]3CCC4=CC(=O)[C@H](C)C[C@]4(C)[C@H]3[C@@H](O)C[C@@]21C
- T/C [1]: 118 % of control
- T/C [2]: 109 % of control
- T/C [3]: 118 % of control

SMILES: CC1C[N+](C)=C2CCCCC2=C1N (stereo not given)
- T/C (dose: 6.25 mg/kg/injection, schedule: Q01DX009 (ip), vehicle: saline): 95 % of control
- T/C (dose: 12.5 mg/kg/injection, schedule: Q01DX009 (ip), vehicle: saline): 100 % of control
- T/C (dose: 25.0 mg/kg/injection, schedule: Q01DX009 (ip), vehicle: saline): 86 % of control
